{
  "source": "paper PMC8386742",
  "about": "“Discovery of N-aryl sulphonamide-quinazoline derivatives as anti-gastric cancer agents in vitro and in vivo via activating the Hippo signalling pathway” (Journal of Enzyme Inhibition and Medicinal Chemistry, 2021)",
  "key": {"MGC-803 cells": {"test_system": "MGC-803 cells", "assay": "Annexin V-FITC/PI cell apoptosis assay, MGC-803 cells", "assay_type": "cell-based, human", "conditions": "MGC-803, high dose, 48 h", "procedure": "(§1) Bcl-2 regulated by the Hippo/YAP plays an important role in cell apoptosis. Therefore, we next examined the effects of compound 9i on cell apoptosis. MGC-803 and SGC-7901 cells were treated with compound 9i for 48 h, as shown in Figures 5(A,B), the nuclei of gastric cancer are dense and fragmented, and cells became round, small, and was induced to die. To determine the influence of compound 9i on cell death, MGC-803 and SGC-7901 cells treated with compound 9i were stained with Annexin V-FITC/PI. As shown in Figure 5(C), the high dose compound 9i treatment group induced over 60% of cell apoptosis at 48 h. As shown in Figure 5(D), some other apoptosis-related proteins were also regulated by compound 9i in MGC-803 and SGC-7901 cells. Compound 9i caused dose-dependent decreases of anti-apoptosis proteins c-IAP and Mcl-1. […] Mitochondrial membrane potential depolarisation and translocation from the mitochondria to the cytoplasm of cytochrome c are two key steps involved in the intrinsic apoptosis pathway. As shown in Figures 5(F–H), compound 9i depolarised mitochondrial membrane potential and induced the translocation of cytochrome c.\n(§2) Figure 5. Compound 9i induced apoptosis in MGC-803 and SGC-7901 cells. Density ratios relative to β-Actin were shown on the top of each Western blotting band. […] The cell line of each row appears only in tiny plot titles that cannot be read with certainty. […]"}, "SGC-7901 cells": {"test_system": "SGC-7901 cells", "assay": "Annexin V-FITC/PI cell apoptosis assay, SGC-7901 cells", "assay_type": "cell-based", "conditions": "SGC-7901, high dose, 48 h", "procedure": "as §1, §2"}, "MGC-803 xenograft tumour": {"test_system": "MGC-803 xenograft tumour", "assay": "MGC-803 xenograft model", "assay_type": "in vivo, nude mice", "procedure": "When the tumour volume reached 100 mm^3, vehicle control, compound 9i, and 5-FU were administered by daily intraperitoneal injection for 21 consecutive days. During the treatment, tumour volume and body weight of nude mice were measured every 3 days from the beginning of treatment. […] Tumour weight was measured after the execution of animals, the inhibition rate of the compound 9i treated group was over 60% than the vehicle group (Figures 7(B,C)). Tunnel staining was used for cell apoptosis detection, as shown in Figure 7(D), compound 9i increased the level of cell apoptosis. […] Next, the levels of YAP, Bcl-2, c-Myc, Ki67, and cleaved PARP in tissues were detected using immunochemistry to validate the results. […] The data indicated compound 9i inhibited YAP to inhibit the tumour in vivo.\nA human gastric cancer subcutaneous transplantation tumour model was established with MGC-803 cells. After the tumour volume reaches 100 mm3 the MGC-803 bearing mice were randomised into 3 groups and intraperitoneal injection with normal saline or drugs continuously for 21 days. Tumour volume was measured every 3 days (Length × Width2/2). Mice were executed after treatment. 500 μL blood samples was collected each mouse, samples were then centrifuged at 2000 g for 10 min for biochemistry analysis. Tumour and organs tissues were harvested for H&E staining or immunochemistry detection. The experiments in the study were performed comply with the protocols approved by the Institutional Animal Care and Use Committee, Zhengzhou University."}, "tubulin": {"test_system": "tubulin", "assay": "Tubulin polymerization, extracellular", "assay_type": "biochemical", "conditions": "3 μmol/L", "text": "In this work, compound 9i was design and synthesized by SAR study of our reported tertiary amide derivatives compound 1 and compound 2. Therefore, we tested the influence of compound 9i on tubulin polymerization and AKT/mTOR and ERK […]\ninfluence on tubulin polymerization and P38, ERK, AKT, mTOR and Wnt pathways . […]\npathway. Therefore, we here reported N-sulfonamide-quinazoline derivatives as novel anti-gastric cancer agents via activating the Hippo signaling pathway in vitro and in […]\nSupporting Figure S1. A. Activity of compound 9i on tubulin polymerization . Tubulin polymerization extracellular, concentrations of Paclitaxel, Colchicine and 9i were 3 μmol/L; Activity of compound 9i on P38, ERK, AKT, mTOR and Wnt pathways, cells were incubated with […]\n(1 picture or pasted object on this page, not shown here)"}},
  "data": [
    {"molecule": "COc1ccc(S(=O)(=O)N(Cc2nc(C)c3ccccc3n2)c2cc(OC)c(OC)c(OC)c2)cc1", "note": "[Compound 9i, 4-Methoxy-N-((4-methylquinazolin-2-yl)methyl)-N-(3,4,5-trimethoxyphenyl) benzene-sulfonamide]", "values": [
      {"measurement": "cell apoptosis", "setting": "MGC-803 cells", "result": "over 60%"},
      {"measurement": "cell apoptosis", "setting": "SGC-7901 cells", "result": "over 60%"},
      {"measurement": "tumour growth (tumour volume)", "setting": "MGC-803 xenograft tumour; daily intraperitoneal injection for 21 days", "result": "inhibited tumour growth in vivo"},
      {"measurement": "tumour weight inhibition rate", "setting": "MGC-803 xenograft tumour; daily intraperitoneal injection for 21 days, versus vehicle group", "result": "over 60%"},
      {"measurement": "expression of YAP, Bcl-2 and c-Myc in tumour tissues", "setting": "MGC-803 xenograft tumour; tumour tissues after 21 days treatment", "result": "significantly down-regulated"},
      {"measurement": "influence on tubulin polymerization", "setting": "tubulin", "result": "no strong influence"}
    ]}
  ]
}
